Values of other authors as cited in US20130071326A1, “UNIVERSAL CELL-DIRECTED THERANOSTICS” (Board of Regents of the University of Texas System, priority 2010, published 2013).

Tested on: tumor
Conditions: conventional DOX treatments, at best

accumulation of the drug at the tumor: 0.8 to 5 µg
Structure (SMILES): COc1cccc2c1C(=O)c1c(O)c3c(c(O)c1C2=O)C[C@@](O)(C(=O)CO)C[C@@H]3O[C@H]1C[C@H](N)[C@H](O)[C@H](C)O1 [DOX, doxorubicin]
